# Assay results taken from patent publication US20260013505A1, “Herbicidal Compositions Comprising Diclosulam” (BASF SE, priority 2024, published 2026).
# Legend:
# Format in all cases: in vivo
# [1] = tested on: Amaranthus viridis; test: Example 2 post-emergence field trial, AMAVI; conditions: 21 DAT, growth stage 16-18
# Description: (§1) In the examples below, using the method of S. R. Colby (1967) “Calculating synergistic and antagonistic responses of herbicide combinations”, Weeds 15, p. 22ff., the value E, which is expected if the activity of the individual active compounds is only additive, was calculated:
# (§2) [formula] • where • X=percent activity using active herbicide A at an application rate a; • Y=percent activity using active herbicide B (e.g. diclosulam) at an application rate b; • E=expected activity (in %) by A+B at application rates a+b.
# (§3) If the value found experimentally is higher than the value E calculated according to Colby, a synergistic effect is present.
# (§4) On field test sites, natural weed infestation or seeded weeds were treated post-emergence of the weeds.
# (§5) In the field trials, the weeds were treated as indicated below.
# (§6) In the following experiments, the herbicidal activity for the individual herbicidal compositions (solo and mixture applications) was assessed at the indicated days after treatment (DAT). The assessments for the damage on undesired weeds caused by the composition was carried out using a scale from 0 to 100%, compared to the untreated control plants. Here, 0 means no damage and 100 means complete destruction of the plants. […]
# [2] = tested on: Ipomoea triloba; test: Example 1 post-emergence field trial, IPOTR; conditions: 14 DAT, growth stage 35
# Description: as §1, §2, §3, §4, §5, §6
# [3] = tested on: Digitaria horizontalis; test: Example 1 post-emergence field trial, DIGHO; conditions: B solo 30 g ai/ha, 14 DAT, growth stage 18-31
# Description: as §1, §2, §3, §4, §5, §6
# [4] = tested on: Brachiaria plantaginea; test: Example 1 post-emergence field trial, BRAPL; conditions: B solo 30 g ai/ha, 14 DAT, growth stage 21-25
# Description: as §1, §2, §3, §4, §5, §6
# [5] = tested on: Cenchrus echinatus; test: Example 1 post-emergence field trial, CCHEC; conditions: B solo 30 g ai/ha, 14 DAT, growth stage 18-31
# Description: as §1, §2, §3, §4, §5, §6
# [6] = tested on: Amaranthus hybridus; test: Example 1 post-emergence field trial, AMACH; conditions: B solo 30 g ai/ha, 14 DAT, growth stage 35
# Description: as §1, §2, §3, §4, §5, §6
# [7] = tested on: Portulaca oleracea; test: Example 2 post-emergence field trial, POROL; conditions: B solo 30 g ai/ha, 21 DAT, growth stage 14-16
# Description: as §1, §2, §3, §4, §5, §6
# [8] = tested on: Eleusine indica; test: Example 1 post-emergence field trial, ELEIN; conditions: B solo 30 g ai/ha, 14 DAT, growth stage 18-31
# Description: as §1, §2, §3, §4, §5, §6
# [9] = tested on: Sorghum vulgare; test: Example 2 post-emergence field trial, SORVU; conditions: B solo 30 g ai/ha, 14 DAT, growth stage 14-15
# Description: as §1, §2, §3, §4, §5, §6
# [10] = tested on: Eleusine indica; test: Example 2 post-emergence field trial, ELEIN; conditions: B solo 30 g ai/ha, 21 DAT, growth stage 21-25
# Description: as §1, §2, §3, §4, §5, §6
# [11] = tested on: Euphorbia heterophylla; test: Example 1 post-emergence field trial, EPHHL; conditions: B solo 30 g ai/ha, 14 DAT, growth stage 35
# Description: as §1, §2, §3, §4, §5, §6
Structure (SMILES),% herbicidal activity ([1]; A-1 solo 25 g ai/ha) [%],% herbicidal activity ([2]; A-1 solo 25 g ai/ha) [%],% herbicidal activity [3] [%],% herbicidal activity [4] [%],% herbicidal activity [5] [%],% herbicidal activity [6] [%],% herbicidal activity [7] [%],% herbicidal activity [8] [%],% herbicidal activity ([1]; B solo 30 g ai/ha) [%],% herbicidal activity [9] [%],% herbicidal activity [10] [%],% herbicidal activity [11] [%],% herbicidal activity ([2]; B solo 30 g ai/ha) [%]
"CCOC(=O)COc1ccccc1Oc1nc(-n2c(=O)cc(C(F)(F)F)n(C)c2=O)c(F)cc1Cl [A-1, ethyl 2-[2-[[3-chloro-5-fluoro-6-[3-methyl-2,6-dioxo-4-(trifluoromethyl)pyrimidin-1-yl]-2-pyridyl]oxy]phenoxy]acetate]",69,61,–,–,–,–,–,–,–,–,–,–,–
"CCOc1nc(F)cc2nc(S(=O)(=O)Nc3c(Cl)cccc3Cl)nn12 [B, diclosulam]",–,–,0,3,20,22,58,0,65,32,0,16,17
